Laboratory results from the NIST ThermoML archive (doi:10.1016/j.jct.2016.03.021).

Experiment: wn = mass fraction of the nth substance listed
Conditions: Liquid; for mass density: Vibrating tube method

NCCO [2-aminoethan-1-ol] + O
viscosity [mPa·s]
Conditions | w1 = 0.1 | w1 = 0.1001 | w1 = 0.2 | w1 = 0.3 | w1 = 0.3005 | w1 = 0.4 | w1 = 0.4001
293.15 K, 93 kPa, Concentric cylinders viscometry | 1.409 | – | 1.982 | 2.967 | – | 4.326 | –
293.15 K, 100 kPa, Falling or rolling sphere viscometry | – | 1.435 | 1.968 | – | 2.913 | – | 4.315
293.15 K, 101 kPa, Falling or rolling sphere viscometry | 1.435 | – | 1.968 | 2.913 | – | 4.315 | –
293.15 K, 5000 kPa, Falling or rolling sphere viscometry | – | 1.435 | 1.97 | – | 2.921 | – | 4.34
293.15 K, 10000 kPa, Falling or rolling sphere viscometry | – | 1.434 | 1.969 | – | 2.93 | – | 4.368
293.15 K, 20000 kPa, Falling or rolling sphere viscometry | – | 1.43 | 1.973 | – | 2.952 | – | 4.426
293.15 K, 30000 kPa, Falling or rolling sphere viscometry | – | 1.43 | 1.977 | – | 2.972 | – | 4.475
293.15 K, 40000 kPa, Falling or rolling sphere viscometry | – | 1.429 | 1.983 | – | 2.99 | – | 4.528
293.15 K, 60000 kPa, Falling or rolling sphere viscometry | – | 1.431 | 1.994 | – | 3.032 | – | 4.628
293.15 K, 80000 kPa, Falling or rolling sphere viscometry | – | 1.434 | 2.009 | – | 3.076 | – | 4.739
293.15 K, 100000 kPa, Falling or rolling sphere viscometry | – | 1.432 | 2.026 | – | 3.12 | – | 4.845
293.15 K, 120000 kPa, Falling or rolling sphere viscometry | – | 1.443 | 2.046 | – | 3.162 | – | 4.954
313.15 K, 93 kPa, Concentric cylinders viscometry | 0.8932 | – | 1.198 | 1.675 | – | 2.284 | –
313.15 K, 100 kPa, Falling or rolling sphere viscometry | – | 0.891 | 1.173 | – | 1.638 | – | 2.284
313.15 K, 101 kPa, Falling or rolling sphere viscometry | 0.891 | – | 1.173 | 1.638 | – | 2.284 | –
313.15 K, 5000 kPa, Falling or rolling sphere viscometry | – | 0.892 | 1.178 | – | 1.642 | – | –

mass density [kg/m3]
Conditions | w1 = 0.1001 | w1 = 0.2 | w1 = 0.3005 | w1 = 0.4
293.15 K, 100 kPa | 1002.5 | 1006.9 | 1012.3 | 1018.1
293.15 K, 500 kPa | 1002.7 | 1007 | 1012.5 | 1018.1
293.15 K, 1000 kPa | 1002.9 | 1007.2 | 1012.7 | 1018.3
293.15 K, 2000 kPa | 1003.3 | 1007.6 | 1013 | 1018.6
293.15 K, 5000 kPa | 1004.6 | 1008.7 | 1014.1 | 1019.6
293.15 K, 10000 kPa | 1006.7 | 1010.7 | 1016 | 1021.4
293.15 K, 15000 kPa | 1008.8 | 1012.6 | 1017.7 | 1023.1
293.15 K, 20000 kPa | 1010.9 | 1014.5 | 1019.6 | 1024.8
293.15 K, 30000 kPa | 1015.1 | 1018.4 | 1023.2 | 1028.3
293.15 K, 40000 kPa | 1019.1 | 1022.1 | 1026.6 | 1031.6
293.15 K, 50000 kPa | 1023 | 1025.8 | 1030 | 1034.8
293.15 K, 60000 kPa | 1026.9 | 1029.4 | 1033.5 | 1038.1
293.15 K, 70000 kPa | 1030.8 | 1033 | 1036.9 | 1041.4
293.15 K, 80000 kPa | 1034.5 | 1036.2 | 1040 | 1044.3
293.15 K, 90000 kPa | 1038.2 | 1039.7 | 1043.3 | 1047.5
293.15 K, 100000 kPa | 1041.8 | 1043.2 | 1046.6 | 1050.4
293.15 K, 110000 kPa | 1045.2 | 1046.4 | 1049.6 | 1053.3
293.15 K, 120000 kPa | 1048.8 | 1049.6 | 1052.6 | 1056.3
313.15 K, 100 kPa | 995.9 | 999.1 | 1003.2 | 1007.5
313.15 K, 500 kPa | 996 | 999.2 | 1003.4 | 1007.7
313.15 K, 1000 kPa | 996.3 | 999.4 | 1003.6 | 1007.9
313.15 K, 2000 kPa | 996.6 | 999.8 | 1004 | 1008.3
